Measurements published in patent publication US10966426B2, “Herbicidal compositions comprising phenylpyrimidines” (BASF SE, priority 2016, dated 2021).
Where “and” joins values, the source holds several entries; their conditions need not be identical. Equal entries are not always repeated.

Assays:
Format in all cases: in vivo
Stellaria media = assay: greenhouse pre-emergence treatment, STEME
Procedure, shortened: (§1)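 Damage rated on 0 to 100 scale (0 = normal growth, 100 = no emergence or total above-ground kill) after 2-4 weeks at species-dependent 10-25° C or 20-35° C. Seeds sown per species in loamy sand, ~3.0% humus, treated right after sowing with aqueous spray of single actives or 10% emulsion-concentrate mixtures, then hooded; additive expectation by Colby.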

Apera spica-venti [1] = assay: greenhouse pre-emergence treatment, APESV
Procedure, shortened: as §1

Papaver rhoeas = assay: greenhouse pre-emergence treatment, PAPRH
Procedure, shortened: as §1

Apera spica-venti [2] = assay: greenhouse post-emergence treatment, APESV
Procedure, shortened: (§2)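 Plants in loamy sand (~3.0% humus) were sprayed post-emergence at 3–15 cm height with actives in a water spray liquor made from 10% by weight emulsion concentrates. Plants were kept at 10-25° C. or 20-35° C. by species and rated over 2–4 weeks on a 0–100 scale (100 = complete destruction). Colby's E = X+Y−(X·Y/100) gave the expected additive effect.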

Echinocloa crus-galli = assay: greenhouse post-emergence treatment, ECHCG
Procedure, shortened: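 Foliar application to greenhouse-grown plants 3–15 cm tall in humus-containing loamy sand; response assessed on a 0–100 scale after 2–4 weeks, with Colby's E=X+Y−(X·Y/100) as the additive expectation.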

Helianthus annuus = assay: greenhouse post-emergence treatment, HELAN
Procedure, shortened: as §2

Digitaria sanguinalis = assay: greenhouse post-emergence treatment, DIGSA
Procedure, shortened: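 Visual damage score 0–100 (0 = normal growth; 100 = no emergence/above-ground parts destroyed), read 2–4 wk post-treatment. Loamy sand, ~3.0% humus; seedlings grown in place or transplanted days before spraying; water as solvent; 10-25° C. or 20-35° C. per species. Combination expectations by Colby: E=X+Y−(X·Y/100).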

Polygonum aviculare = assay: greenhouse post-emergence treatment, POLAV
Procedure, shortened: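 Greenhouse; post-emergence spray at 3–15 cm; aqueous EC formulation; 2–4 weeks; 0–100 visual score.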

Galium aparine = assay: greenhouse pre-emergence treatment, GALAP; conditions: 20 DAT
Procedure, shortened: as §1

[3] = 20 DAT, solo Ex. 26 62.5 gai/ha
[4] = Ex. 26 solo 31.25 gai/ha, 20 DAT
[5] = Ex. 26 solo 62.5 gai/ha, 20 DAT
[6] = Ex. 26 solo, 62.5 gai/ha, 20 DAT
[7] = Ex. 26 solo, 125 gai/ha, 20 DAT
[8] = 20 DAT, Ex. 26 solo 62.5 gai/ha

COC(=O)c1nc(C2CC2)ncc1-c1ccc(F)cc1Cl [Ex. 26]
% activity (Stellaria media; 20 DAT, Ex. 26 solo 125 gai/ha): 20% | % activity (Stellaria media; 20 DAT, Ex. 26 solo 250 gai/ha): 90% | % activity (Stellaria media; 20 DAT, solo Ex. 26 15 gai/ha): 40% | % activity (Stellaria media; [3]): 30% | % activity (Stellaria media; 20 DAT, solo Ex. 26 125 gai/ha): 0% | % activity (Stellaria media; [4]): 0% | % activity (Stellaria media; [5]): 0% | % activity (Stellaria media; Ex. 26 solo 125 gai/ha, 21 DAT): 30% | % activity (Stellaria media; Ex. 26 solo 250 gai/ha, 21 DAT): 80% | % activity (Stellaria media; [6]): 0% | % activity (Stellaria media; [7]): 0% | % activity (Apera spica-venti [1]; 20 DAT, Ex. 26 solo 125 gai/ha): 90% | % activity (Apera spica-venti [1]; 20 DAT, solo Ex. 26 125 gai/ha): 75% | % activity (Apera spica-venti [1]; 20 DAT, solo Ex. 26 125 gai/ha (Table X68)): 70% | % activity (Apera spica-venti [1]; Ex. 26 solo 125 gai/ha, 20 DAT): 65% | % activity (Apera spica-venti [1]; [7]): 70% | % activity (Papaver rhoeas; 20 DAT, Ex. 26 solo 31.25 gai/ha): 0% | % activity (Papaver rhoeas; [8]): 0% | % activity (Papaver rhoeas; 20 DAT, Ex. 26 solo 125 gai/ha): 30% | % activity (Papaver rhoeas; [3]): 0% | % activity (Papaver rhoeas; [4]): 0% | % activity (Papaver rhoeas; [5]): 0% | % activity (Papaver rhoeas; Ex. 26 solo 125 gai/ha, 20 DAT): 0% and 30% | % activity (Papaver rhoeas; Ex. 26 solo, 31.25 gai/ha, 20 DAT): 0% | % activity (Papaver rhoeas; [6]): 0% | % activity (Papaver rhoeas; [7]): 0% | % activity (Apera spica-venti [2]; 20 DAT, APESV, Ex. 26 solo 62.5 gai/ha): 70% | % activity (Apera spica-venti [2]; 20 DAT, APESV, Ex. 26 solo 125 gai/ha): 75% | % activity (Apera spica-venti [2]; 20 DAT, APESV, Ex. 26 solo 250 gai/ha): 80% | % activity (Apera spica-venti [2]; 21 DAT, Ex. 26 solo 125 gai/ha): 65% | % activity (Apera spica-venti [2]; 21 DAT, Ex. 26 solo 250 gai/ha): 75% | % activity (Apera spica-venti [2]; APESV, Ex. 26 solo 125 gai/ha, 20 DAT): 75% and 70% | % activity (Apera spica-venti [2]; APESV, Ex. 26 solo 250 gai/ha, 20 DAT): 75% | % activity (Apera spica-venti [2]; Ex. 26 solo 62.5 gai/ha, 20 DAT, APESV): 60% | % activity (Apera spica-venti [2]; Ex. 26 solo 125 gai/ha, 20 DAT, APESV): 70% | % activity (Apera spica-venti [2]; Ex. 26 solo 250 gai/ha, 20 DAT, APESV): 75% | % activity (Echinocloa crus-galli; 20 DAT, ECHCG, Ex. 26 solo 125 gai/ha): 65% | % activity (Echinocloa crus-galli; 20 DAT, ECHCG, Ex. 26 solo 250 gai/ha): 70% | % activity (Echinocloa crus-galli; 20 DAT, Ex. 26 solo 250 gai/ha): 80% and 60% | % activity (Echinocloa crus-galli; ECHCG, Ex. 26 solo 62.5 gai/ha, 20 DAT): 60% | % activity (Echinocloa crus-galli; ECHCG, Ex. 26 solo 125 gai/ha, 20 DAT): 65% | % activity (Echinocloa crus-galli; ECHCG, Ex. 26 solo 250 gai/ha, 20 DAT): 70% and 65% | % activity (Echinocloa crus-galli; Ex. 26 solo 62.5 gai/ha, 21 DAT, ECHCG): 50% | % activity (Echinocloa crus-galli; Ex. 26 solo 250 gai/ha, 20 DAT, ECHCG): 65% | % activity (Helianthus annuus; 20 DAT, Ex. 26 solo 250 gai/ha): 0% | % activity (Helianthus annuus; 20 DAT, HELAN, Ex. 26 solo 125 gai/ha): 0% and 10% | % activity (Helianthus annuus; 20 DAT, HELAN, Ex. 26 solo 250 gai/ha): 10% | % activity (Helianthus annuus; Ex. 26 solo 62.5 gai/ha, 20 DAT, HELAN): 0% | % activity (Helianthus annuus; Ex. 26 solo 125 gai/ha, 20 DAT, HELAN): 0% | % activity (Helianthus annuus; Ex. 26 solo 250 gai/ha, 20 DAT, HELAN): 5% | % activity (Helianthus annuus; Ex. 26 solo, 125 gai/ha, 21 DAT, HELAN): 10% | % activity (Helianthus annuus; Ex. 26 solo, 250 gai/ha, 21 DAT, HELAN): 25% | % activity (Digitaria sanguinalis; 20 DAT, DIGSA, Ex. 26 solo 125 gai/ha): 0% | % activity (Digitaria sanguinalis; [8]): 0% | % activity (Digitaria sanguinalis; 20 DAT, Ex. 26 solo 250 gai/ha): 20% and 30% | % activity (Digitaria sanguinalis; 21 DAT, Ex. 26 solo 125 gai/ha): 0% | % activity (Digitaria sanguinalis; DIGSA, 21 DAT, solo Ex. 26 62.5 gai/ha): 20% | % activity (Digitaria sanguinalis; DIGSA, 21 DAT, solo Ex. 26 125 gai/ha): 20% | % activity (Digitaria sanguinalis; DIGSA, 21 DAT, solo Ex. 26 250 gai/ha): 20% | % activity (Digitaria sanguinalis; DIGSA, Ex. 26 solo 125 gai/ha, 20 DAT): 0% | % activity (Digitaria sanguinalis; Ex. 26 solo 62.5 gai/ha, 20 DAT, DIGSA): 0% | % activity (Polygonum aviculare; [8]): 75% | % activity (Polygonum aviculare; 20 DAT, Ex. 26 solo 125 gai/ha): 85% | % activity (Polygonum aviculare; Ex. 26 solo 62.5 gai/ha, 20 DAT, POLAV): 85% | % activity (Polygonum aviculare; Ex. 26 solo 125 gai/ha, 20 DAT, POLAV): 90% | % activity (Polygonum aviculare; Ex. 26 solo, 125 gai/ha, 20 DAT, POLAV): 85% | % activity (Polygonum aviculare; POLAV, 21 DAT, solo Ex. 26 125 gai/ha): 90% | % activity (Galium aparine; Ex. 26 solo 31.25 gai/ha): 0% | % activity (Galium aparine; Ex. 26 solo 62.5 gai/ha): 0% | % activity (Galium aparine; Ex. 26 solo 125 gai/ha): 0% | % activity (Galium aparine; GALAP, Ex. 26 solo 31.25 gai/ha): 0% | % activity (Galium aparine; GALAP, Ex. 26 solo 62.5 gai/ha): 0%
